ChEMBL document CHEMBL1201862, “PubChem BioAssay data set” (2004)
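Each compound was tested at five concentrations against cells in 96-well plates for 48 hours. GI50 is the concentration that inhibits growth by half.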 Activity calls are given as the source filed them. Rule as the data show it: active = GI50 up to about 1.1 µM and inactive = higher.

Columns and labels:
Test in all cases: growth of human tumour cells (NCI), 48 h
OVCAR-4 = tested on: OVCAR-4
CCRF-CEM = tested on: CCRF-CEM
HOP-62 = tested on: HOP-62
HCT-116 = tested on: HCT-116
SN12C = tested on: SN12C
UO-31 = tested on: UO-31
UACC-257 = tested on: UACC-257
HL-60 = tested on: HL-60
UACC-62 = tested on: UACC-62
RXF 393 = tested on: RXF 393
M14 = tested on: M14
OVCAR-5 = tested on: OVCAR-5
IGROV-1 = tested on: IGROV-1
SW-620 = tested on: SW-620
HT-29 = tested on: HT-29
NCI-H460 = tested on: NCI-H460
MOLT-4 = tested on: MOLT-4
KM12 = tested on: KM12
OVCAR-3 = tested on: OVCAR-3
SR = tested on: SR

Measured: GI50

O=C(O)C12CC3CC(C1)C2C=C3P(=O)(O)O (stereo not given)
inactive: OVCAR-4 > 100 µM | CCRF-CEM > 100 µM | HOP-62 > 100 µM | HCT-116 > 100 µM | SN12C > 100 µM | UO-31 > 100 µM | UACC-257 > 100 µM | HL-60 > 100 µM | UACC-62 > 100 µM | RXF 393 > 100 µM | M14 > 100 µM | OVCAR-5 > 100 µM | IGROV-1 > 100 µM | SW-620 > 100 µM | HT-29 > 100 µM | NCI-H460 > 100 µM | MOLT-4 > 100 µM | KM12 > 100 µM | OVCAR-3 > 100 µM

CCP(=S)(CC)CCl
inactive: OVCAR-4 > 100 µM | CCRF-CEM > 100 µM | HOP-62 > 100 µM | HCT-116 > 100 µM | SN12C > 100 µM | UO-31 > 100 µM | UACC-257 > 100 µM | HL-60 > 100 µM | M14 > 100 µM | OVCAR-5 > 100 µM | SR > 100 µM | IGROV-1 > 100 µM | SW-620 > 100 µM | HT-29 > 100 µM | NCI-H460 > 100 µM | MOLT-4 > 10 µM | OVCAR-3 > 100 µM

CCOC(=O)C1=NN(c2ccccc2)C2=CC(C)=NN(C)C(=S)N21
inactive: OVCAR-4 > 100 µM | CCRF-CEM > 100 µM | HCT-116 > 100 µM | SN12C > 100 µM | UO-31 > 100 µM | UACC-257 > 100 µM | HL-60 > 100 µM | UACC-62 > 100 µM | RXF 393 > 100 µM | M14 > 100 µM | OVCAR-5 > 100 µM | SR > 100 µM | IGROV-1 > 100 µM | SW-620 > 100 µM | HT-29 > 100 µM | NCI-H460 48.5 µM | MOLT-4 > 100 µM | KM12 > 100 µM | OVCAR-3 > 100 µM

Cc1cc(O)nc(NN2C(Cl)C(=O)C2c2c(O)ccc3ccccc23)n1 (stereo not given)
inactive: OVCAR-4 17.3 µM | CCRF-CEM 6.76 µM | HOP-62 15.1 µM | HCT-116 17.3 µM | SN12C 21.7 µM | UO-31 26.1 µM | UACC-257 31.2 µM | HL-60 14.1 µM | UACC-62 20.3 µM | RXF 393 13.2 µM | M14 15.2 µM | OVCAR-5 36.9 µM | SR 12 µM | IGROV-1 38.5 µM | SW-620 30.2 µM | HT-29 25 µM | NCI-H460 15 µM | MOLT-4 16.3 µM | KM12 23 µM | OVCAR-3 13.2 µM
